Results published in US20250197355A1, “TEAD Targeting Compounds and Methods Thereof” (Agency for Science, Technology and Research, priority 2022, published 2025).

Key:
Assay type in all cases: cell-based
[1] = Colony forming assay for compound 2 and 38 (treatment and 5 days recovery); settings: treatment and recovery (5 days)
YAP-TEAD binding = target: T1, YAP-TEAD binding (Homo sapiens, UniProt Q15561); assay: Endogenous TEAD4 immunoprecipitation in NCI-H226 mesothelioma cells; settings: 24 hrs, indicated concentrations
T1 construct: Endogenous TEAD4 IP; endogenous in cells; host or cells: NCI-H226 mesothelioma cells
Description: Evaluation of CPD10 and CPD13 in NCI-H226 mesothelioma cell line: Actively growing cells were either DMSO added or treated with indicated concentrations of CPD10 and CPD13 for 24 hrs. Cells were collected in ice-cold PBS and pellets were lysed in IP Lysis Buffer (25 mM Tris-HCl pH 7.4, 150 mM NaCl, 1 mM EDTA, 1% NP-40 and 5% glycerol and competing amount of protease inhibitor). Samples were lysed by sonication, BCA assay was performed and equal concentration of protein were added with TEAD4 antibody (3 ul). After overnight incubation in cold room, samples were added with anti-rabbit magnetic beads to trap the TEAD and binding complex for 2 hrs. Samples were washed 3 times and bound fraction were collected with the help of magnetic stand. Samples were added with 4×LDS, competing amount of DTT, and boiled for 3 minutes. Whole cell lysate (Input) and IP samples were resolved in 8% SDS-PAGE gel and immunoblotted with indicated antibodies.
(§1) Relative quantification of immunoblot signals were quantified with IMAGE J software. Actively growing cells were added with indicated concentrations of CPD10 and CPD13 and cells were collected after 24 hrs. RNA was extracted and cDNA was synthesized. Indicated primer pairs were used for RT-PCR. Relative gene expression was determined by using GAPDH amplification.

[2] = test system: TEAD transcriptional target genes; assay: RT-PCR profiling of YAP-TEAD transcriptional target genes in NCI-H226 cells; settings: 24 hrs
Description: as §1

A549 cells = assay: Cell proliferation assay (Cell Titre Glow) in A549 cells with TEAD4 depletion; settings: TEAD4 depleted A549 cells, compared with NTsi treated cells
Description: (§2) Method: Indicated cells were plated at 3000 cells/80 μl in each well. TEAD4 depletion was performed by reverse transfection with 20 nM of Dharmacon smart pool NTsiRNA and TEAD4 siRNA in 0.25 ul of lipofectamine mixed with 25% of OPTIMEM. After 18 hrs of transfection, cells were recovered for 24 hrs in fresh DMEM medium. Cells were treated with indicated compounds at different doses. After 48 hrs of dosing cells were recovered in fresh medium for 3 days. Cell Titre Glow (CTG) assay was used.
(§3) U20S cells stably expressing GFP fused TEAD4 and GFP alone were treated with different doses of CPD10 and analysed for cellular proliferation. […] Further we used cell lines expressing higher level of TEAD4 and performed depletion experiment followed by comparative sensitivity analysis.

[3] = test system: hippo signaling target proteins (TEAD4, Pan-TEADs, YAP, TAZ); assay: Immunoblotting of hippo signaling target proteins in A549 whole cell lysates; settings: A549 cells, 24 hrs; for wild type p53 expression (immunoblot): same protein samples
Description: Method: A549 cells (at 60% confluency) either mock treated or treated with indicated doses of CPD10 and CPD13 for 24 hrs. Cells were washed with ice-cold 1×PBS and lysed in protein lysis buffer. Whole cell lysates were quantified by Pierce™ BCA Protein assay kit (Catalog number: 23225) and denatured in 4×LDS buffer (Thermo catalog number: NP0007) added with competing amount of DTT followed by boiling for 3 minutes. Samples were resolved in 8% of SDS-PAGE, transferred onto nitrocellulose membrane and immunoblotting was performed with indicated antibodies.
Result: To determine the CPD10 and CPD13 mediated expression of hippo signaling target proteins in A549 cells, whole cell lysates from mock treated and compounds treated cells were immunoblotted to determine the level of TEAD4, Pan-TEADs, YAP, TAZ proteins. […] Similar to CPD10, CPD13 downregulate YAP expression at 10 Um (B). To determine the level of other transcriptional targets, we tested the p53 protein in same sets of protein samples. […] GAPDH was used as loading control.

U20S cells [4] = assay: Cell proliferation assay (Cell Titre Glow) in U20S cells
Description: as §2, §3

[5] = test system: NCI-H226 mesothelioma cells; assay: Colony forming assay in NCI-H226 mesothelioma cells
Description: (§4) In colony forming assay, indicated cells were plated at 5,000 cells density in 2 ml of DMEM medium. TEAD4 depletion was performed by reverse transfection with 20 nM of Dharmacon smart pool NTsiRNA and TEAD4 siRNA in 2.5 ul of lipofectamine mixed with 25% of OPTIMEM. After 18 hrs of transfection, cells were either DMSO treated or treated with indicated compounds at different doses. After 48 hrs of the treatment cells were recovered in a fresh medium for 4 days. At the end of the experiment cells were Glutaraldehyde fixed and stained in crystal violet solution for 2 hrs. After washing, plates were scanned for image processing.
Colony forming assay was essentially performed as described in previous section.

[6] = target: T2, TEAD4 binding to YAP and TAZ (Homo sapiens, UniProt Q15561); assay: GFP-TRAP assay to pull down TEAD4 binders in U20S cells expressing GFP fused TEAD4; settings: U20S cells expressing GFP fused TEAD4, 10 uM
T2 construct: expressed in transfected cells
Description: GFP-TRAP assay: To purify TEAD4 binders, GFP-Trap Magnetic Agarose (gtma-100) was used, and assay was performed strictly according to manufacturer's instructions. At the end of the assay, agarose beads were resuspended in 2×LDS lysis buffer, competing amount of DTT was added into it and samples were boiled for 3 minutes. Supernatants were collected and used for immunoblotting.
To determine whether CPD10 or 13 leads downregulation of TEAD4 binding to its transcriptional targets YAP and TAZ, U20S cells stably expressing GFP alone and GFP fused TEAD4 were either mock-treated or treated with indicated doses of CPD10. GFP-TRAP assay was performed to pull down TEAD4 binders, and immunoblotted. As one of the strong binders of the TEAD4, YAP/TAZ protein signal were detected in purified complex. […] The GFP blot indicating the GFP and GFP fused TEAD4 signal in whole cell lysates and purified protein samples (C).

GFP-TEAD4 = target: T3, GFP-TEAD4 (Homo sapiens, UniProt Q15561); assay: TEAD4 localization imaging in U20S cells stably expressing GFP-TEAD4; settings: 10 μM, 18 hrs
T3 construct: expressed in transfected cells
Description: Methods: U20S cells stably expressing GFP-TEAD4 were seeded at 50,000 cell densities onto glass cover slips in six well plates. Next day, cells were either DMSO treated or treated with indicated compounds at 10 μM concentrations. After 18 hrs of treatment cells were washed and fixed in 4% formaldehyde for 20 minutes. Blocking was done in 3% BSA dissolved in PBST for 1 hour. Cell were incubated with indicated antibodies for overnight in a cold room. Next day, after washing 3× in PBST samples were incubated with respective secondary antibodies for 45 minutes at room temperature. After washing nuclear staining was done with DAPI for 10 minutes. Coverslips were added onto glass slides with the help of mounting medium. After drying, cells were imaged at 63× objective and processed with ZEN x64 blue software.
Result: In DMSO treated control samples we observed very nuclear localized TEAD4 (green) signal, strongly imposed to the DAPI signal. Nuclear and cytoplasmic YAP and TAZ was observed either in DMSO or in compound treated cells.

[7] = test system: TEADs transcriptional target genes; assay: RT PCR transcriptional profiling of TEADs target genes in A549 cells; settings: for NFKB1 relative expression (RT PCR) / c-MYC relative expression (RT PCR): low dose; for YAP/TAZ relative expression (RT PCR): low dose (2.5 μM of CPD10)
Description: Method: A549 cells (at 60% confluency) either mock treated or treated with indicated doses of CPD 10 and CPD13 for 24 hrs. Cells were washed with ice-cold 1×PBS. RNA extraction was performed with Quick-RNA™ miniprep kit (Zymo Research, Cat. No. R1055), strictly according to manufacturer's instructions. Nanodrop quantified 2 μg of RNA samples were used for cDNA synthesis with cDNA Reverse Transcription Kit (Thermo Cat. No. 4368814) strictly according to the manufacturer's instructions. In RT PCR experiment, comparative target gene expression was performed by SYBR™ Green (Thermo Cat. No. 4309155) Master mix. Relative target gene expressions were compared and plotted on Y-Axis.
Result: Relative expression of YAP and TAZ in response to low dose of CPD10 (A) and CPD13 (B) treatment in A549 cells. c-MYC was included as non-transcriptional target of the TEADs. NFKB1 was included as its expression is reciprocal to the YAP/TAZ. Downstream effectors of the TEADs targets (CYR61, AXL, CTGF and ANKRD1) were determined in responses to 2.5, 5 and 10 μM of CPD10 (C) and CPD13 (D).
CPD10 and CPD13 Downregulate the TEADs transcriptional target genes: To determine CPD10 and CPD13 induced relative expression of TEADs target genes, A549 cells were treated with indicated doses for 24 hrs. Transcriptional profiling was performed with respective primer pairs. […] Further we tested the expression of one of the strong non hippo transcription factor, the C-Myc. As expected, c-MYC expression was not affected in response to CPD10 treatment (A). […] C-Myc expression was not affected. […] An Increase of NFKB1 expression is consistent with significant downregulation of YAP expression in response to CPD13 treatment (B). To determine the state of TEADs transcriptional target genes at higher concentrations, A549 cells were treated with indicated doses of compounds and analyzed for the expression of CYR61, AXL, CTGF and ANKRD1.

U20S cells [8] = assay: Colony forming assay in U20S cells depleted of or overexpressing TEAD4; settings: for TEAD4 dependence of cellular sensitivity (siRNA depletion, colony forming): U20S cells, control siRNA vs TEAD4 siRNA
Description: as §4
In line with proliferation assay we performed colony forming assay in U20S cells either depleted or overexpressing TEAD4. Cells stably expressing GFP and GFP fused TEAD4 were also included in this assay.

[9] = test system: CTGF and CYR61 transcripts; assay: RT-qPCR of Hippo-dependent gene transcripts in MCF10
Description: (§5) MGH-CP1 (positive control) and Cpd 13 were tested on MCF10 and A549.

[10] = test system: CTGF and CYR61 transcripts; assay: RT-qPCR of Hippo-dependent gene transcripts in A549
Description: as §5

T3 sequence (Q15561 whole entry): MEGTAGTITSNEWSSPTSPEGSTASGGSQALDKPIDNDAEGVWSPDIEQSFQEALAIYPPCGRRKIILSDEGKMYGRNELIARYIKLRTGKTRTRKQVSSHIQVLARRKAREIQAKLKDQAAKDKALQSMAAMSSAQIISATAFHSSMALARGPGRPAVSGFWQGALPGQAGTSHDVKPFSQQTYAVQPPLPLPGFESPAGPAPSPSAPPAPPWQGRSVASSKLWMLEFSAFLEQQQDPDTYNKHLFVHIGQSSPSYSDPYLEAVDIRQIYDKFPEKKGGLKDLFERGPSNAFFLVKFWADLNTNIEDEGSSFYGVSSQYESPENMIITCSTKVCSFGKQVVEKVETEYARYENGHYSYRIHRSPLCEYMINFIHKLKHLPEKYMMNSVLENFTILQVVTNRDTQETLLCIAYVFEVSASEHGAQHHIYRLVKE
T1 sequence (Q15561 whole entry): as above
T2 sequence (Q15561 whole entry, the tested form may be a part): as the sequence (Q15561 whole entry) above

SMILES	TEAD dependence of induced cell sensitivity (colony forming assay) [1]	YAP-TEAD binding (TEAD4 IP, immunoblot) (YAP-TEAD binding)	TEAD transcriptional target genes expression (RT-PCR) [2]	wild type p53 expression (immunoblot) [3]	colony forming sensitivity [5]	cytoplasmic localization of the TEAD4 protein (GFP-TEAD4)	nuclear TEAD4 presence (GFP-TEAD4)	AXL relative expression (RT PCR) ([7]; 24 hrs, 2.5, 5 and 10 μM)	CTGF relative expression (RT PCR) ([7]; 24 hrs, 2.5, 5 and 10 μM)	CYR61 relative expression (RT PCR) ([7]; 24 hrs, 2.5, 5 and 10 μM)	NFKB1 relative expression (RT PCR) ([7]; 24 hrs)	c-MYC relative expression (RT PCR) ([7]; 24 hrs)	YAP/TAZ relative expression (RT PCR) ([7]; 24 hrs)	TEAD4 dependence of cellular sensitivity (siRNA depletion, colony forming) (U20S cells [8])	further results
C=CS(=O)(=O)CCC(=O)Nc1cc(-c2ccccc2)cnc1C [CPD2]	not TEAD dependent														
C=CS(=O)(=O)CCC(=O)Nc1nn(-c2ccccc2)cc1C [CPD10]		disrupted to a great extent	repression	didn't resulted in change	strongly sensitizes	induction of cytoplasmic localization	didn't diminish	suppressed at 2.5 μM and subsequently downregulated in a dose dependent manner	suppressed at 2.5 μM and subsequently downregulated in a dose dependent manner	suppressed at 2.5 μM and subsequently downregulated in a dose dependent manner	minor increase	not affected	downregulated	TEAD4 dependent	cellular proliferation sensitivity (A549 cells): lower sensitivity; TAZ expression (immunoblot) ([3]; 10 Um): significantly reduced; TEAD4 and pan-TEAD expression (immunoblot) ([3]; highest concentration): reduced; YAP expression (immunoblot) ([3]; indicated doses): downregulated in a dose dependent manner; cellular proliferation sensitivity (U20S cells [4]; U20S cells expressing GFP alone, low dose): didn't display sensitivity; cellular proliferation sensitivity (U20S cells [4]; U20S cells overexpressing GFP-TEAD4, below 5 uM): higher sensitivity; YAP/TAZ binding to TEAD4 (GFP-TRAP pull down, immunoblot) [6]: significantly reduced; ANKRD1 relative expression (RT PCR) ([7]; 24 hrs, 10 μM): significantly reduced; colony forming sensitivity (U20S cells [8]; U20S cells overexpressing GFP fused TEAD4, in comparison to GFP alone): very high sensitivity; colony forming sensitivity (U20S cells [8]; U20S cells treated with control siRNA, unlike TEAD4 depleted cells, 2.5 μM): very high sensitivity
C=CS(=O)(=O)CCC(=O)Nc1nc(C2CCCCC2)c(C)s1 [CPD13]		disrupted to a great extent	repression	didn't resulted in change	strongly sensitizes	induction of cytoplasmic localization	didn't diminish	further downregulated in a dose dependent manner	further downregulated in a dose dependent manner	further downregulated in a dose dependent manner	Increase	not affected	significant reduction	TEAD4 dependent	CTGF and CYR61 transcripts (RT-qPCR) [9]: dose dependent decrease; YAP expression (immunoblot) ([3]; 10 Um): downregulate; CTGF and CYR61 transcripts (RT-qPCR) [10]: dose dependent decrease; ANKRD1 relative expression (RT PCR) ([7]; 24 hrs, 2.5, 5 and 10 μM): further downregulated in a dose dependent manner; colony forming sensitivity (U20S cells [8]; TEAD4 depleted cells, unlike control siRNA treated cells): less sensitive
C=CS(=O)(=O)CCC(=O)Nc1cnn(-c2ccccc2)n1 [CPD38]	not TEAD dependent														
